Laboratory results: patent publication US5593970A, “Heterocyclic anthracycline analogs” (priority 1994, dated 1997)
Counter-ions that a name gives are not always drawn.

Legend:
LS180 = assay: Soft agar colony formation disk diffusion assay; assay type: cell-based, human
In short: (§1)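 Plate cells in an upper 0.4% agar layer over a 0.8% agar base, then add compound on a 6.5 mm disk one-third from the dish edge. Incubate 10–20 days at 37 °C, 5% CO2. Measure the colony-free zone around the disk with a calibrated micrometer.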

MCF7/ADR = assay: Soft agar colony formation disk diffusion assay; assay type: cell-based, human
In short: as §1

MCF7 = assay: Soft agar colony formation disk diffusion assay; assay type: cell-based, human
In short: as §1

SKVLB = assay: Microculture tetrazolium assay; assay type: cell-based; conditions: for VLB/OV3: IC50 ratio SKVLB/SKOV3; for IC50: SKVLB, read-out: IC50
Leukemia = assay: NCI assay, average per cancer type; conditions: for CC50: 48 h, read-out: Average LOG10 LC50; for GI50: read-out: Average LOG10 GI50
NSC Lung = assay: NCI assay, average per cancer type; conditions: Homo sapiens; for CC50: 48 h, read-out: Average LOG10 LC50; for GI50: read-out: Average LOG10 GI50
SC Lung = assay: NCI assay, average per cancer type; conditions: Homo sapiens; for CC50: 48 h, read-out: Average LOG10 LC50; for GI50: read-out: Average LOG10 GI50
CNS = assay: NCI assay, average per cancer type; conditions: Homo sapiens; for CC50: 48 h, read-out: Average LOG10 LC50; for GI50: read-out: Average LOG10 GI50
Melanoma = assay: NCI assay, average per cancer type; conditions: Homo sapiens; for CC50: 48 h, read-out: Average LOG10 LC50; for GI50: read-out: Average LOG10 GI50
Ovarian = assay: NCI assay, average per cancer type; conditions: Homo sapiens; for CC50: 48 h, read-out: Average LOG10 LC50; for GI50: read-out: Average LOG10 GI50
Renal = assay: NCI assay, average per cancer type; conditions: Homo sapiens; for CC50: 48 h, read-out: Average LOG10 LC50; for GI50: read-out: Average LOG10 GI50
solid tumors = assay: NCI assay, mean potency in solid tumors; conditions: for CC50 / GI50: Homo sapiens; for CC50: 48 h, read-out: Average LOG10 LC50, Mean Potency in solid tumors; for GI50: read-out: Average LOG10 GI50, Mean Potency in solid tumors
tumor cell lines = assay: NCI sulforhodamine B assay, all cell lines; conditions: for CC50 / IC100 / GI50: Homo sapiens; for CC50 / IC100: 48 h; for CC50: read-out: Log10 LC50, Mean / MG-MID, all cell lines (converted); for IC100: read-out: Log10 TGI, Mean / MG-MID, all cell lines; for GI50: read-out: Log10 GI50, Mean / MG-MID, all cell lines (converted)

Row | Structure (SMILES) | zone of inhibition (LS180; 10 μg/DISK) [Zone Units] | zone of inhibition (LS180; 100 μg/DISK) [Zone Units] | zone of inhibition (MCF7/ADR; 10 μg/DISK) [Zone Units] | zone of inhibition (MCF7/ADR; 100 μg/DISK) [Zone Units] | zone of inhibition (MCF7; 100 μg/DISK) [Zone Units] | VLB/OV3 (SKVLB) | IC50 (SKVLB) [µM] | CC50 (Leukemia) [µM] | GI50 (Leukemia) [µM] | CC50 (NSC Lung) [µM] | GI50 (NSC Lung) [µM] | GI50 (SC Lung) [µM] | CC50 (CNS) [µM] | GI50 (CNS) [µM] | CC50 (Melanoma) [µM] | GI50 (Melanoma) [µM] | CC50 (Ovarian) [µM] | GI50 (Ovarian) [µM] | CC50 (Renal) [µM] | GI50 (Renal) [µM] | also measured
1 | COC(=O)[C@@H]1CC2=C(C(=O)c3c(c(OC)c4ccccc4c3O)C2=O)[C@@H](O[C@H]2C[C@H](NC(=O)C(F)(F)F)[C@H](O)[C@H](C)O2)O1 (mixture of isomers) [BCH-674, (1'S,1S,3R) and 1'S,1R,3S) Methyl(11-hydroxy-6-methoxy-1-[2',3',6'-trideoxy-3-trifluoroacetamido-4'-hydroxy-L-lyxohexopyranose]-5,12-dioxo-3,4,5,12-tetrahydroanthra-ceno[2,3-c]pyran-3-yl) formate] | 0 | 67.1 ± 8.6 | 0 | 339.6 ± 4.3 | 76.2 ± 21.6 | 0.91 | 6.81 | > 100 | 8.71 | 69.2 | 9.33 | 13.2 | 63.1 | 13.8 | 89.1 | 13.2 | 83.2 | 15.8 | 57.5 | 8.91 | zone of inhibition (MCF7; 10 μg/DISK): 0 Zone Units; CC50 (SC Lung): 120 µM; CC50 (solid tumors): 81.3 µM; GI50 (solid tumors): 12.3 µM; Average LOG10 LC50, Mean Potency in solid tumors (solid tumors; solid tumors, 2880 min): -4.09 ± 0.11 log molar; CC50 (tumor cell lines): 67.6 µM; IC100 (tumor cell lines): 30.2 µM; GI50 (tumor cell lines): 12.3 µM
2 | COC(=O)[C@H]1CC2=C(C(=O)c3c(c(OC)c4ccccc4c3O)C2=O)[C@H](O[C@H]2C[C@H](NC(=O)C(F)(F)F)[C@H](O)[C@H](C)O2)O1 (mixture of isomers) [BCH-675, (1'S,1S,3R) and 1'S,1R,3S) Methyl(11-hydroxy-6-methoxy-1-[2',3',6'-trideoxy-3-trifluoroacetamido-4'-hydroxy-L-lyxohexopyranose]-5,12-dioxo-3,4,5,12-tetrahydroanthra-ceno[2,3-c]pyran-3-yl) formate] | 0 | 148.4 ± 31.3 | 0 | 26.3 ± 14.0 | 30.5 ± 10.5 | 0.43 | 3.97 | > 100 | 2.95 | 56.2 | 9.33 | 7.24 | 61.7 | 10.7 | 79.4 | 5.89 | 63.1 | 8.51 | 56.2 | 9.12 | zone of inhibition (MCF7; 10 μg/DISK): 0 Zone Units; CC50 (solid tumors): 66.1 µM; GI50 (solid tumors): 8.32 µM; CC50 (tumor cell lines): 57.5 µM; IC100 (tumor cell lines): 21.4 µM; GI50 (tumor cell lines): 7.94 µM
3 | CCOC(=O)C1CC2=C(CO1)C(=O)c1c(cc3ccccc3c1O)C2=O (stereo not drawn) [BCH-651, Ethyl(6 and 11 hydroxy-5,12-dioxo-3,4,5,12-tetrahydro-anthraceno[2,3-c]pyran-3-yl)]formate] | 0 | 76.2 ± 21.5 | 10.0 ± 5.0 | 131.1 ± 30.1 | 115.9 ± 8.6 | 1.13 | 23.6 | > 100 | 3.31 | 50.1 | 7.76 | 2.75 | 64.6 | 10 | 34.7 | 2.75 | 46.8 | 5.89 | 55 | 10 | CC50 (SC Lung): 61.7 µM; CC50 (solid tumors): 50.1 µM; GI50 (solid tumors): 5.25 µM; antiproliferative and cytotoxic activity in words (tumor cell lines): strong antiproliferative (GI50) and potent cytotoxic (LC50) activities; CC50 (tumor cell lines): 58.9 µM; IC100 (tumor cell lines): 21.4 µM; GI50 (tumor cell lines): 5.5 µM
